The test system of data set [1] is U138-MG human glioma cell. As to the kind of experiment: Cell proliferation analysis (MTT). Format: cell-based. To be noted: reference drugs, MTT.
A further data set relates to U87-MG human glioma cell. Put plainly: Cell proliferation analysis (MTT). Format: cell-based. To be noted: reference drugs, MTT.
A short description of data set [2]: In vivo GBM rat model: haematology. The procedure:
(§1) The parameters that were analysed can be seen in Table 11.

Data set [3] is described as follows: In vivo GBM rat model: plasma chemistry. Conditions: GBM rats, 30 mg/kg oral, 5 days, plasma at necropsy. The procedure: as §1
A short description of data set [4]: Peripheral blood micronucleus assay. Format: in vivo, Rat. As to the method: Blood smears were made on clean microscope slides, allowed to air-dry, treated with methanol for fixation, and then stained with Giemsa (10% in 0.1 mM of sodium phosphate buffer, pH 6.8) for 10 min. After washing with PBS, the slides were examined under a light microscope. The frequencies of micronuclei (MN) were calculated by evaluating 1000 cells per animal.

Data set [5] in a line: In vivo GBM rat model: body weight. Conditions: treated GBM rats compared to the GBM rats, 30 mg/kg oral, 5 days. As to the method: An in Vivo study was performed to assess the therapeutic potential of TR-G002, TR-G045, TR-G053, TR-G066, TR-G071 and TR-G091 in the GBM xenograft rat model when administered orally by gavage for five consecutive days. 152 female rats of the Sprague Dawley strain were allocated to the study. Six groups of sixteen females were given dose of 30 mg/kg of the respective target compounds. […] The study design can be seen in Fig. 11 and Table 10.
Individual body weights were manually calculated. Group mean body weights; group mean body weight changes and organ weights were also manually calculated without statistical analysis. To determine the density of positive staining from immunohistochemical and immunofluorescence staining images, five randomly selected areas were evaluated using ZEISS Zen Imaging Software. Data were statistically defined as mean and standard deviation (mean ± SD) for the percentage of the area. One-way ANOVA followed by the Tukey test was performed to compare immunoreactive cells and immune-positive stained areas with healthy controls. GraphPad Prism software was used for analysis.

Where [6] appears, read: GBM rats, 30 mg/kg oral, 5 days, blood at necropsy.

For `Cn1nnc2c(C(N)=O)ncn2c1=O` [TMZ, Temozolomide, reference compound], in data set [1], the “Inhibition (%)” value worked out at 22% and the “Proliferation (%)” value is 78%. Also, in the data set on U87-MG human glioma cell, the “Inhibition (%)” value was 20% and the “Proliferation (%)” value was found to be 80%. In data set [2] (setting [6]), this molecule showed an HCT of 48.13%, an HGB of 15.13 g/dL, an MCH of 18.10 pg and an MCHC of 31.47 g/dL. In addition, in data set [2] (setting [6]), the MCV turned out to be 57.55 fL, the PLT is given as 829.67 10^9 /L, the RBC was 8.36 10^12/L and the WBC was 4.92 10^9/L. The PLT levels result in data set [2] (compared to GBM rats) is listed as “no significant changes”. For the same molecule, the WBC level result in data set [2] (compared to the GBM rats) is listed as “did not cause any significant changes”. Further, in data set [3], the ALP was determined as 128.7 IU/L, the ALT stood at 42.4 IU/L, the AST came to 114.63 IU/L and the GLU is 311 mg/dL. Further, in data set [3], the LDH was determined as 499.85 IU/L, the “LDL C” value was determined as 5.12 mmol/L and the TG came to 111 mg/dL. For the same molecule, the MN frequency in data set [4] (GBM rats, 30 mg/kg oral, 5 days, 1000 cells per animal evaluated) is reported as 14.32 ± 3.10. For the same molecule, the “MN frequency (comparison)” value in data set [4] (treated GBM rats) is on record as “highest observed MN frequency”. Also, in data set [5], the body weight result is recorded as “No significant change in body weight”.

These data come from patent EP4644375A1, “SUBSTITUTED HYDROQUINOLINES FOR THE TREATMENT OF GLIOBLASTOMA MULTIFORME” (Molius Saglik Teknolojileri Anonim Sirketi, priority 2024, dated 2025).
